Measured values: patent publication US7524503B2, “Human cytomegalovirus (HCMV) cytotoxic T cell epitopes, polyepitopes compositions comprising same and diagnostic and prophylactic and therapeutic uses therefor” (priority 2001, dated 2009)
Where two headings read alike, the source gives them in different places.

How the values were obtained:
[1] = test system: PBMC from healthy HCMV seropositive donors; assay: IFN-γ ELISPOT assay; assay type: cell-based, human; conditions: peptide 10 μg/ml
In short: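 IFN-γ-secreting T cells were counted as spots, with no-peptide control wells subtracted and means taken from triplicate wells. These spots came from healthy seropositive carriers' PBMC, 2.5×10^5 per well.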

[2] = test system: peptide-sensitized autologous PHA blasts or LCLs; assay type: cell-based, human; design: key to CTL response: Y: Yes; ND: Not detected
CD8+ T cells = assay: CD4+/CD8+ analysis of 20-mer peptides (intracellular IFN-γ staining or depletion ELISPOT); assay type: cell-based, human
Method: (§1) To determine whether a particular 20-mer peptide contained either a CD4^+- or CD8^+-restricted epitope, or both, CD4^+/CD8^+ cell depletion ELISPOT assays were performed on PBMC from healthy virus carriers. For any one experiment, three populations of cells were used: a) CD8^+-depleted PBMC, b) CD4^+-depleted PBMC, and c) non-depleted PBMC. These populations of cells were tested concurrently with the same peptides in a conventional ELISPOT assay as described herein above. DYNABEADS M-450 (Dynal, Oslo, Norway) that bound specifically to CD4^+- or CD8^+ cells were used to perform the depletion essentially according to manufacturers instructions. Beads were washed twice in cold PBS supplemented with 2% FCS using magnetic isolation. The requisite number of cells was resuspended in cold PBS supplemented with 2% FCS, added to the beads and then incubated at 4° C., in the dark, for 30 mins (CD8^+ beads) or 60 mins (CD4^+ beads). Populations were depleted of CD4^+ or CD8^+ cells using magnetic separation. After depletion, the non-attached cells were removed and washed once in growth medium, counted and used in conventional ELISPOT assay. Depleted cells were used at 1.7×10^5 cells per well and the non-depleted population was used at the standard 2.5×10^5 cells per well. After the depletion step, each respective cell population was assessed for the purity of CD4^+ and CD8^+ T cells by three-colour flow cytometry. Samples of depleted cell populations were stained with anti-CD3 antibody directly conjugated to fluorescein isothiocyanate (FITC), anti-CD4 antibody conjugated with phycoerythrin (PE) fluorochrome, and anti-CD8 antibody conjugated with Tricolor fluorochrome (described below). The percent of CD3^+/CD4^+ cells present within the CD8^+-depleted population and the percent of CD3^+/CD8^+ cells present within the CD4^+-depleted populations were assessed on FACSCalibur cytometer (Becton Dickinson). The purity of each population was greater than 90% and the results from the ELISPOT assays are expressed as the percentage of CD4+ or CD8^+ cells within the depleted populations that responded toward each peptide by producing IFN-γ.
(§2) PBMCs were incubated at 37° C. in RPMI+10% FCS with and without 10 μg/ml peptides for 6 hours. Golgiplug™ (Pharmingen, San Diego, Calif., USA) was added to the samples according to manufacturer's instructions during the second hour of incubation and cells activated with 25 ng/ml phorbol 12-myristidate 13-acetate (PMA; Sigma-Aldrich Co, St. Louis Mo.) and 1 μg/ml iomomycin (Sigma) acted as a positive control. Following the incubation, 1×10^6 cells/sample were washed and resuspended in staining buffer consisting of PBS with GolgiPlug™, 3% FCS and sodium azide. Cells were then stained with FITC conjugated anti-CD3-FITC (UCHT1, Immunotech, Marseille, France), and either Tricolor (TRI) conjugated anti-CD4 (S3.5, Caltag, Burlingame, Calif.) or anti-CD8 (3B5, Caltag) for 30 minutes, 4° C. in the dark. The cells were fixed for 20 min at 4° C. with Cytofix/Cytoperm™ (BD Biosciences) and resuspended in Perm/Wash™ permeabilization buffer (BD Biosciences) according to manufacturers protocol. Fixed cells were stained with phycoerythrin (PE) conjugated anti-human IFN-γ (B27, Pharmingen) for 30 min at 4° C. in the dark. As a negative control, cells were stained with appropriate isotype matched control antibodies. Cells were washed twice in permeabilization buffer and resuspended in staining buffer before analysis by three-colour flow cytometry on a FACSCalibur cytometer (BD Biosciences). All data analysis was carried out using FlowJo software (Tree Star, Inc. San Carlos, CA).
(§3) When using 20-mer peptides to map epitopes by ELISPOT, it is possible that some responses may be MHC class-II restricted, and not necessarily restricted through HLA class I alleles. It was evident throughout this study that some epitopes identified using ELISPOT could not be confirmed using cytotoxicity analysis. […]

CD4+ T cells = assay: as above; assay type: cell-based, human
Method: as §1, §2, §3

HLA A2 = target: T1, HLA A2 (Homo sapiens, UniProt P04439, D140Y/D185E/D98H/E176V/E277Q/G131W/G231S/I119V/I121R/I166T/I218V/L300P/L318F/N151K/N90K/P208A/P217A/Q86G/Q94H/R138H/R169H/T345S); assay type: cell-based; conditions: HLA A2 on T2 cells; relative increase in HLA expression vs no peptide at 26° C.
T1 construct: endogenous in cells; host or cells: T2 cells

[3] = overlapping 20mer peptides, Table 4

SICPSQEPMSIYVYALPLKM
ELISPOT Responses (SFC/10^6 PBMC) ([1]; donor eight): 3178 SFC/10^6 PBMC | CTL response [2, 3]: Y | Responding cells (% CD8) (CD8+ T cells; donor eight): 1.36% | Responding cells (% CD4) (CD4+ T cells; donor eight): 1.18%

YYTSAFVFPTKDVALRHVVC
ELISPOT Responses (SFC/10^6 PBMC) ([1]; donor eight): JW(858) SFC/10^6 PBMC | ELISPOT Responses (SFC/10^6 PBMC) ([1]; donor seven): 775 SFC/10^6 PBMC | ELISPOT Responses (SFC/10^6 PBMC) ([1]; donor two): 358 SFC/10^6 PBMC | CTL response [2, 3]: Y | Responding cells (% CD8) (CD8+ T cells; donor two): 0.04% | Responding cells (% CD4) (CD4+ T cells; donor two): 0.05%

MNGQQIFLEVQAIRETVELR
ELISPOT Responses (SFC/10^6 PBMC) ([1]; donor alpha): 277 SFC/10^6 PBMC | ELISPOT Responses (SFC/10^6 PBMC) ([1]; donor two): 2985 SFC/10^6 PBMC | CTL response [2, 3]: Y | Responding cells (% CD8) (CD8+ T cells; donor two): 0.48% | Responding cells (% CD4) (CD4+ T cells; donor two): 0.26%

AVGGAVASV (human cytomegalovirus gB CTL epitope peptide)
ELISPOT Responses (SFC/10^6 PBMC) ([1]; donor seven): SB(192) SFC/10^6 PBMC | MSE (MHC stabilization efficiency) (HLA A2): − (− = 0-50%) | CTL response ([2]; predicted epitopes, Table 3): Y

IQIIYTRNHEVKSEVDAVRC
ELISPOT Responses (SFC/10^6 PBMC) ([1]; donor delta): 203 SFC/10^6 PBMC | ELISPOT Responses (SFC/10^6 PBMC) ([1]; donor seven): 288 SFC/10^6 PBMC | CTL response [2, 3]: Y | Responding cells (% CD8) (CD8+ T cells; donor delta): 0.19% | Responding cells (% CD4) (CD4+ T cells; donor delta): 0%

QAIRETVELRQYDPVAALFF
ELISPOT Responses (SFC/10^6 PBMC) ([1]; donor alpha): 102 SFC/10^6 PBMC | ELISPOT Responses (SFC/10^6 PBMC) ([1]; donor seven): 241 SFC/10^6 PBMC | ELISPOT Responses (SFC/10^6 PBMC) ([1]; donor two): JD(2593) SFC/10^6 PBMC | CTL response [2, 3]: Y | Responding cells (% CD8) (CD8+ T cells; donor two): 0.33% | Responding cells (% CD4) (CD4+ T cells; donor two): 0.28%

TAAKAYAVGQFEQPTETPPE (human cytomegalovirus IE2 CTL epitope peptide)
ELISPOT Responses (SFC/10^6 PBMC) ([1]; donor fourteen): 859 SFC/10^6 PBMC | ELISPOT Responses (SFC/10^6 PBMC) ([1]; donor seven): 326 SFC/10^6 PBMC | CTL response [2, 3]: Y | Responding cells (% CD8) (CD8+ T cells; donor fourteen): 0.35% | Responding cells (% CD4) (CD4+ T cells; donor fourteen): 0.2%

VLAELVKQI (human cytomegalovirus IE1 CTL epitope peptide)
ELISPOT Responses (SFC/10^6 PBMC) ([1]; donor seven): SB(276) SFC/10^6 PBMC | MSE (MHC stabilization efficiency) (HLA A2): ++ (++ = 100-199%) | CTL response ([2]; predicted epitopes, Table 3): Y

FEQPTETPPEDLDTLSLAIE (human cytomegalovirus IE2 CTL epitope peptide)
ELISPOT Responses (SFC/10^6 PBMC) ([1]; donor fourteen): RK(791) SFC/10^6 PBMC | CTL response [2, 3]: Y | Responding cells (% CD8) (CD8+ T cells; donor fourteen): 0.35% | Responding cells (% CD4) (CD4+ T cells; donor fourteen): 0.2%

QYDPVAALFFFDIDLLLQRG
ELISPOT Responses (SFC/10^6 PBMC) ([1]; donor seven): SB(97) SFC/10^6 PBMC | CTL response [2, 3]: Y | Responding cells (% CD8) (CD8+ T cells; donor seven): 0.03% | Responding cells (% CD4) (CD4+ T cells; donor seven): 0.22%

QQNQWKEPDVYYTSAFVFPT
ELISPOT Responses (SFC/10^6 PBMC) ([1]; donor eight): JW(600) SFC/10^6 PBMC | CTL response [2, 3]: Y | Responding cells (% CD8) (CD8+ T cells; donor eight): 0.03% | Responding cells (% CD4) (CD4+ T cells; donor eight): 0%

PQYSEHPTFTSQYRIQGKLE
ELISPOT Responses (SFC/10^6 PBMC) ([1]; donor delta): 980 SFC/10^6 PBMC | ELISPOT Responses (SFC/10^6 PBMC) ([1]; donor four): MB(413) SFC/10^6 PBMC | ELISPOT Responses (SFC/10^6 PBMC) ([1]; donor fourteen): 1393 SFC/10^6 PBMC | CTL response [2]: Y | Responding cells (% CD8) (CD8+ T cells; donor delta): 0.87% | Responding cells (% CD8) (CD8+ T cells; donor four): 0% | Responding cells (% CD8) (CD8+ T cells; donor fourteen): 0.96% | Responding cells (% CD4) (CD4+ T cells; donor delta): 0% | Responding cells (% CD4) (CD4+ T cells; donor four): 0.05% | Responding cells (% CD4) (CD4+ T cells; donor fourteen): 1.69%
